{"source": "patent US20220031596A1", "about": "“ANTI-AGING AGENT AND ANTI-AGING METHOD” (priority 2018, published 2022)", "key": {"[1]": {"tested_on": "mRNA expression level of the sirtuin gene Sirt1", "experiment": "Evaluation of sirtuin 1 (Sirt1) secretion promoting effect (blood Sirt1 mRNA by real-time PCR, 24-week oral ingestion)", "format": "in vivo, human", "conditions": "for mRNA expression level of the sirtuin gene Sirt1 (relative to that of GAPDH), 0 weeks (before ingestion) / mRNA expression level of the sirtuin gene Sirt1 (relative to that of GAPDH), 24 weeks (after ingestion) / mRNA expression level of the sirtuin gene Sirt1 (relative to that of GAPDH), Change rate (24 weeks - 0 weeks): blood, High Dose Group (200 mg/daily, oral), mean±SD; for mRNA expression level of the sirtuin gene Sirt1 (relative to that of GAPDH), 0 weeks (before ingestion): baseline", "experimental": "In order to confirm a change in the Sirt1 quantity before and after ingestion of the nicotinamide mononucleotide, a test was conducted on healthy males and females aged 50 to 70 years.\nAs a sample of Working Example 13, a capsule formulation containing the nicotinamide mononucleotide and starch (200 mg of the nicotinamide mononucleotide in 4 capsules) (manufactured by SHINKOWA PHARMACEUTICAL Co., Ltd.) was used.\n(§1) Each group consisting of five healthy males and females aged 50 to 70 years in an unbiased age group ingested the above high dose capsule formulation once a day by 4 capsules for 24 weeks (total 10 subjects, 200 mg/daily ingestion). In order to conduct appropriate evaluations, those who had been regularly using medical products for chronic diseases, those who had been consuming healthy foods that may affect clinical research, and those who were currently participating in other clinical researches or clinical trials or had participated in other clinical researches or clinical trials within the last three months were excluded from the subject for the evaluation. The capsule formulations were ingested at 10 am (between meals and fasting state) together with water or lukewarm water (oral administration).\nMeasurement of the Sirt1 quantity in the blood was conducted by requesting the measurement to an external public organization according to a usual method. The mRNA expression level of the sirtuin gene Sirt1 was analyzed by a real-time PCR method with the blood collected before the ingestion of the nicotinamide mononucleotide (0 weeks) and after the ingestion of the nicotinamide mononucleotide (24 weeks). Note that, in this analysis, cDNA was purified on the day when the blood sample was collected and stored at −80° C. until all samples were prepared. The samples were then subjected to the real-time PCR method at the same time. The expression level was normalized using GAPDH as a reference gene. Table 12 indicates the numerical values of the mRNA expression level of the sirtuin gene Sirt1 (relative to that of GAPDH). Note that the numerical values represent mean values±standard deviation."}, "[2]": {"tested_on": "parathyroid hormone concentration in the plasma", "experiment": "Evaluation of parathyroid hormone secretion promoting effect (plasma parathyroid hormone, 24-week oral ingestion)", "format": "in vivo, human", "conditions": "for parathyroid hormone concentration in the plasma, 0 weeks (before ingestion): baseline; for parathyroid hormone concentration in the plasma, 0 weeks (before ingestion) / parathyroid hormone concentration in the plasma, 24 weeks (after ingestion) / parathyroid hormone concentration in the plasma, Change rate (24 weeks - 0 weeks): mean±SD", "experimental": "In order to confirm a change in the parathyroid hormone quantity before and after ingestion of the nicotinamide mononucleotide, a test was conducted on healthy males and females aged 50 to 70 years.\nAs a sample of Working Example 6, a capsule formulation containing the nicotinamide mononucleotide and starch (100 mg (low dose) and 200 mg (high dose) of the nicotinamide mononucleotide in 4 capsules) (manufactured by SHINKOWA PHARMACEUTICAL Co., Ltd.) was used.\nas §1, with “above low dose capsule formulation once a day by 4 capsules for 24 weeks (total 10 subjects, a low dose group: 100 mg/daily ingestion). On the other hand, each group consisting of five healthy males and females aged 50 to 70 years in the unbiased age group ingested the above” for “above”, “subjects, a high dose group:” for “subjects,”\nMeasurement of the parathyroid hormone quantity in the plasma was conducted by requesting the measurement to an external public organization according to a usual method. FIGS. 12a to 12c indicate transitions of the parathyroid hormone concentration (pg/ml) in the plasma for 24 weeks. FIG. 12a represents the transitions of the whole subjects; FIG. 12b represents the transitions of the male subjects; FIG. 12c represents the transitions of the female subjects. Further, FIGS. 13a to 13c indicate change rates (%) of the blood parathyroid hormone concentration up to 24 weeks when the nicotinamide mononucleotide was orally administered to the subjects for 24 weeks. FIG. 13a represents the change rates of the whole subjects; FIG. 13b represents the change rates of the male subjects; FIG. 13c represents the change rates of the female subjects. Further, Table 6 indicates the numerical values of the parathyroid hormone concentration (pg/ml) in the plasma before the ingestion of the nicotinamide mononucleotide (0 weeks) and after the ingestion of the nicotinamide mononucleotide (24 weeks). Note that the numerical values represent mean values±standard deviation."}, "[3]": {"conditions": "Female, High Dose Group (200 mg/daily, oral)"}, "[4]": {"conditions": "Female, Low Dose Group (100 mg/daily, oral)"}, "[5]": {"conditions": "Male, High Dose Group (200 mg/daily, oral)"}, "[6]": {"conditions": "Male, Low Dose Group (100 mg/daily, oral)"}, "[7]": {"conditions": "Whole Subjects, High Dose Group (200 mg/daily, oral)"}, "[8]": {"conditions": "Whole Subjects, Low Dose Group (100 mg/daily, oral)"}}, "data": [{"smiles": "NC(=O)c1ccc[n+]([C@@H]2O[C@H](COP(=O)([O-])O)[C@@H](O)[C@H]2O)c1", "note": "[nicotinamide mononucleotide]", "values": [{"measurement": "mRNA expression level of the sirtuin gene Sirt1 (relative to that of GAPDH), 0 weeks (before ingestion)", "setting": "[1]; Female", "value": "1.01 ± 0.17"}, {"measurement": "mRNA expression level of the sirtuin gene Sirt1 (relative to that of GAPDH), 24 weeks (after ingestion)", "setting": "[1]; Female", "value": "1.72 ± 0.98"}, {"measurement": "mRNA expression level of the sirtuin gene Sirt1 (relative to that of GAPDH), Change rate (24 weeks - 0 weeks)", "setting": "[1]; Female", "value": "1.70 ± 0.90"}, {"measurement": "mRNA expression level of the sirtuin gene Sirt1 (relative to that of GAPDH), 0 weeks (before ingestion)", "setting": "[1]; Male", "value": "1.65 ± 0.99"}, {"measurement": "mRNA expression level of the sirtuin gene Sirt1 (relative to that of GAPDH), 24 weeks (after ingestion)", "setting": "[1]; Male", "value": "3.69 ± 2.82"}, {"measurement": "mRNA expression level of the sirtuin gene Sirt1 (relative to that of GAPDH), Change rate (24 weeks - 0 weeks)", "setting": "[1]; Male", "value": "4.67 ± 5.13"}, {"measurement": "mRNA expression level of the sirtuin gene Sirt1 (relative to that of GAPDH), 0 weeks (before ingestion)", "setting": "[1]; Whole Subjects", "value": "1.33 ± 0.75"}, {"measurement": "mRNA expression level of the sirtuin gene Sirt1 (relative to that of GAPDH), 24 weeks (after ingestion)", "setting": "[1]; Whole Subjects", "value": "2.71 ± 2.25"}, {"measurement": "mRNA expression level of the sirtuin gene Sirt1 (relative to that of GAPDH), Change rate (24 weeks - 0 weeks)", "setting": "[1]; Whole Subjects", "value": "3.18 ± 3.81"}, {"measurement": "expression level of Sirt1 in the blood, effect of ingestion (in words)", "setting": "[1]; oral, 200 mg/daily, 24 weeks", "value": "increased"}, {"measurement": "parathyroid hormone concentration in the plasma, 0 weeks (before ingestion)", "setting": "[2]; [3]", "value": "384 ± 88", "unit": "pg/mL"}, {"measurement": "parathyroid hormone concentration in the plasma, 24 weeks (after ingestion)", "setting": "[2]; [3]", "value": "448 ± 114", "unit": "pg/mL"}, {"measurement": "parathyroid hormone concentration in the plasma, Change rate (24 weeks - 0 weeks)", "setting": "[2]; [3]", "value": "64 ± 65", "unit": "pg/mL"}, {"measurement": "parathyroid hormone concentration in the plasma, 0 weeks (before ingestion)", "setting": "[2]; [4]", "value": "328 ± 45", "unit": "pg/mL"}, {"measurement": "parathyroid hormone concentration in the plasma, 24 weeks (after ingestion)", "setting": "[2]; [4]", "value": "394 ± 63", "unit": "pg/mL"}, {"measurement": "parathyroid hormone concentration in the plasma, Change rate (24 weeks - 0 weeks)", "setting": "[2]; [4]", "value": "66 ± 34", "unit": "pg/mL"}, {"measurement": "parathyroid hormone concentration in the plasma, 0 weeks (before ingestion)", "setting": "[2]; [5]", "value": "410 ± 108", "unit": "pg/mL"}, {"measurement": "parathyroid hormone concentration in the plasma, 24 weeks (after ingestion)", "setting": "[2]; [5]", "value": "438 ± 168", "unit": "pg/mL"}, {"measurement": "parathyroid hormone concentration in the plasma, Change rate (24 weeks - 0 weeks)", "setting": "[2]; [5]", "value": "28 ± 77", "unit": "pg/mL"}, {"measurement": "parathyroid hormone concentration in the plasma, 0 weeks (before ingestion)", "setting": "[2]; [6]", "value": "344 ± 69", "unit": "pg/mL"}, {"measurement": "parathyroid hormone concentration in the plasma, 24 weeks (after ingestion)", "setting": "[2]; [6]", "value": "386 ± 108", "unit": "pg/mL"}, {"measurement": "parathyroid hormone concentration in the plasma, Change rate (24 weeks - 0 weeks)", "setting": "[2]; [6]", "value": "42 ± 73", "unit": "pg/mL"}, {"measurement": "parathyroid hormone concentration in the plasma, 0 weeks (before ingestion)", "setting": "[2]; [7]", "value": "397 ± 94", "unit": "pg/mL"}, {"measurement": "parathyroid hormone concentration in the plasma, 24 weeks (after ingestion)", "setting": "[2]; [7]", "value": "443 ± 135", "unit": "pg/mL"}, {"measurement": "parathyroid hormone concentration in the plasma, Change rate (24 weeks - 0 weeks)", "setting": "[2]; [7]", "value": "46 ± 70", "unit": "pg/mL"}, {"measurement": "parathyroid hormone concentration in the plasma, 0 weeks (before ingestion)", "setting": "[2]; [8]", "value": "336 ± 56", "unit": "pg/mL"}, {"measurement": "parathyroid hormone concentration in the plasma, 24 weeks (after ingestion)", "setting": "[2]; [8]", "value": "390 ± 84", "unit": "pg/mL"}, {"measurement": "parathyroid hormone concentration in the plasma, Change rate (24 weeks - 0 weeks)", "setting": "[2]; [8]", "value": "54 ± 55", "unit": "pg/mL"}, {"measurement": "parathyroid hormone concentrations in the plasma, effect of ingestion (in words)", "setting": "[2]; oral, 100 or 200 mg/daily, 24 weeks, FIGS. 12a-12c, 13a-13c", "value": "increased"}]}]}
